Measured values reported in patent US10617710B2, “Agent for sedating response to external stimulation in skin and method for sedating that response” (Shiseido Company, Ltd, priority 2014, dated 2020).

System: CD39 gene expression
Experiment: CD39 expression promoting effect in human Langerhans cell-like cells (THP-1) under dexamethasone stress, RT-PCR
Assay type: cell-based
Details: THP-1 cells, 10 nM dexamethasone added, versus dexamethasone non-addition group
Procedure: THP-1 cells (American Type Culture Collection, VA, USA) were used as a substitute for human Langerhans cells. Approximately 200,000 THP-1 cells were cultured to confluence in RPMI1640 medium containing 10% FBS. Following culturing, stress hormone in the form of 10 nM dexamethasone was added followed by the respective addition of 0.1% polyoxyethylene (POE) 14/polyoxypropylene (POP) 7 random copolymer dimethyl ether (A), 0.01% of a 2% aqueous solution of sodium carboxymethyl-beta glucan (CM-Glucan, Mibelle Biochemistry) (B) and 0.1% rosewater (Bulgaria Rose Water, Toyotama International) (C). Moreover, a three-type mixture group (ABC) was added that incorporated one-third each of all three components. After culturing for 24 hours after addition, RNA was extracted using Isogen (Wako Pure Chemical Industries) followed by synthesis of cDNA using Superscript III and random primers (Invitrogen). RT-PCR was carried out with the Prism 7900HT (ABI) using SYBR Green (Invitrogen) and the primers indicated below.
During this RT-PCR, ribosomal protein S9 was used as normalization factor.

C[C@@H]1C[C@H]2[C@@H]3CCC4=CC(=O)C=C[C@]4(C)[C@@]3(F)[C@@H](O)C[C@]2(C)[C@@]1(O)C(=O)CO [dexamethasone]
CD39 gene expression level (RT-PCR, normalized to ribosomal protein S9): expression of CD39 decreased
